According to patent US10000471B2, “Pyrazole P38 map kinase inhibitors” (Respivert Limited, priority 2010, dated 2018):

Legend:
p38 MAPKγ (MAPK12) = molecular target: T1, p38 MAPKγ (MAPK12) (Homo sapiens, UniProt P53778); test: Enzyme inhibition assay (FRET, Z-LYTE), p38 MAPKγ; format: biochemical; details: read-out: Enzyme Inhibition IC50 p38γ
T1 construct: purchased Invitrogen
T1 sequence (P53778 1-367): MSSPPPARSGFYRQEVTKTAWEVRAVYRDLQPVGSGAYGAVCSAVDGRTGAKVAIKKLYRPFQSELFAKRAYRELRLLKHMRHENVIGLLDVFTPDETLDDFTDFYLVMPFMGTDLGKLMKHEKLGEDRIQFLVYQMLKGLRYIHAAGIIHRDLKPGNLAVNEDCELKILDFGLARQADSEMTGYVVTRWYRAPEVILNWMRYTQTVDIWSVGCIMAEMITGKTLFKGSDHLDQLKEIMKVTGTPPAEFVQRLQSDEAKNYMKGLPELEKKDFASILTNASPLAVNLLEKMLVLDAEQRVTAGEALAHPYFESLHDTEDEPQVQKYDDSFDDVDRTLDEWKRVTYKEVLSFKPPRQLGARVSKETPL
Method in brief: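 Recombinant phosphorylated p38 MAPKγ preincubated 2 h at RT with compound in HEPES buffer, then 2 μM FRET peptide and 100 μM ATP added for 1 h; protease development 1 h. Coumarin/fluorescein emission ratio gave phosphorylation; IC50 from concentration-response versus uninhibited control.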

[1] = molecular target: T2, p38 MAPKα isoform (MAPK14) (Homo sapiens, UniProt Q16539); test: Enzyme inhibition assay (FRET, Z-LYTE), p38 MAPKα via MAPKAP-K2 activation; format: biochemical; details: read-out: Enzyme Inhibition IC50 p38α
T2 construct: purchased Invitrogen
Method in brief: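 Recombinant p38 MAPKα was preincubated with compound for 2 h at RT. Its activity was measured indirectly through activation/phosphorylation of downstream MAPKAP-K2, with a Z-LYTE FRET peptide read-out (coumarin/fluorescein ratio) after a 1 h development step. IC50 came from concentration-response curves of percent inhibition versus an uninhibited control.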

[2] = test system: TNFα release in d-U937 cells; test: LPS-induced TNFα release in d-U937 cells; format: cell-based, human; details: Homo sapiens, dU937, relative to 10 μg/mL BIRB796, read-out: LPS/TNFα REC50 d-U937
Method in brief: (§1)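 PMA-differentiated (100 ng/ml, 48–72 hr) U937 macrophage-type cells pre-incubated 2 hr with compound, then stimulated 4 hr with 0.1 μg/mL E. coli O111:B4 LPS; supernatant TNFα and IL-8 measured by sandwich ELISA. TNFα inhibition expressed relative to 10 μg/mL BIRB796, giving REC50; IL-8 inhibition versus vehicle, giving IC50.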

[3] = test system: ICAM-1 induction in BEAS2B cells; test: Poly I:C-induced ICAM-1 induction in BEAS2B cells; format: cell-based, human; details: Homo sapiens, BEAS-2B, read-out: PolyIC/ICAM1 IC50 BEAS2B
Method in brief: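 Human bronchial epithelial BEAS2B cells were pre-incubated with compound for 2 hr, then transfected with 1 μg/mL poly I:C. After 18 hr, surface ICAM-1 was measured by cell-based ELISA (OD450-655) and normalized to crystal violet cell counts (OD595). IC50 came from inhibition versus vehicle across the concentration-response curve.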

[4] = test system: IL-8 release in d-U937 cells; test: LPS-induced IL-8 release in d-U937 cells; format: cell-based, human; details: Homo sapiens, dU937
Method in brief: as §1

[5] = test system: Differentiated U937 cells; test: Cell viability MTT assay; format: cell-based, human; details: negative = apparent increase in viability; for MTT Assay (Viability) 4 h d-U937, percentage loss of cell viability: 4 hr in 5% FCS; for MTT Assay (Viability) 24 h d-U937, percentage loss of cell viability: 24 h in 10% FCS
Method in brief: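 Differentiated U937 cells pre-incubated with compound either 4 hr in 5% FCS or 24 h in 10% FCS, then 1 hr MTT. Formazan dissolved in DMSO, absorbance at 550 nm. Percentage viability loss relative to 0.5% DMSO vehicle; apparent increases appear as negative percentages.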

[6] = test system: TNFα release in THP-1 cells; test: LPS-induced TNFα release in THP-1 cells; format: cell-based, human; details: Homo sapiens
Method in brief: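 Human monocytic THP-1 cells stimulated with 3 μg/mL E. coli LPS for 4 hr; supernatant TNFα measured by sandwich ELISA. Inhibition at each concentration versus vehicle control, IC50 from concentration-response curve.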

T2 sequence (Q16539 whole entry, canonical isoform): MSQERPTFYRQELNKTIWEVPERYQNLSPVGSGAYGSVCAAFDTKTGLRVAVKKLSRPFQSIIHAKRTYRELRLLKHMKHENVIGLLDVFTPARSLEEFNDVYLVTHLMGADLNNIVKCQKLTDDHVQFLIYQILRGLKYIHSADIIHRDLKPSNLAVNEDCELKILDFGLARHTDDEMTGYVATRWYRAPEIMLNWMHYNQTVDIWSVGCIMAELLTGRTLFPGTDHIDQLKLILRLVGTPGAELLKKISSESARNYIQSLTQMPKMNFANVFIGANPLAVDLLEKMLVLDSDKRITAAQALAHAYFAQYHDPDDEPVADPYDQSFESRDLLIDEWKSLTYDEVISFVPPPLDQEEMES

CNC(=O)Nc1cc(Oc2ccc(NC(=O)Nc3cc(C(C)(C)C)nn3-c3ccc(CO)cc3)c3cccnc23)ccn1 [Example 62]
IC50 (p38 MAPKγ (MAPK12)): 135 nM
IC50 [1]: 37.2 nM
EC50 [2]: 17.6 nM
IC50 [3]: 70.8 nM
IC50 [4]: 25.8 nM
MTT Assay (Viability) 4 h d-U937, percentage loss of cell viability [5]: −13.4%
MTT Assay (Viability) 24 h d-U937, percentage loss of cell viability [5]: −22.9%
IC50 [6]: 7.1 nM

CNC(=O)Nc1cc(Oc2ccc(NC(=O)Nc3cc(C(C)(C)C)nn3-c3ccc(CO)cc3)c(Cl)c2Cl)ccn1 [Example 52, 1-(3-tert-butyl-1-(4-hydroxymethylphenyl)-1H-pyrazol-5-yl)-3-(2,3-dichloro-4-(2-(3-methylureido)pyridin-4-yloxy)phenyl)urea]
IC50 (p38 MAPKγ (MAPK12)): 32.1 nM
IC50 [1]: 16.8 nM
EC50 [2]: 0.5 nM
IC50 [3]: 2.4 nM
IC50 [4]: 1.9 nM
MTT Assay (Viability) 4 h d-U937, percentage loss of cell viability [5]: −43.8%
MTT Assay (Viability) 24 h d-U937, percentage loss of cell viability [5]: 8.1%
IC50 [6]: 1 nM

COCC(=O)Nc1cc(Oc2ccc(NC(=O)Nc3cc(C(C)(C)C)nn3-c3ccc(C)cc3)c(Cl)c2)ccn1 [Example 27, N-(4-(4-(3-(3-tert-butyl-1-p-tolyl-1H-pyrazol-5-yl)ureido)-3-chlorophenoxy)pyridin-2-yl)-2-methoxyacetamide]
IC50 (p38 MAPKγ (MAPK12)): 111 nM
IC50 [1]: 18.8 nM
EC50 [2]: 0.5 nM
IC50 [3]: 6.3 nM
IC50 [4]: 3.3 nM
MTT Assay (Viability) 4 h d-U937, percentage loss of cell viability [5]: 7.2%
MTT Assay (Viability) 24 h d-U937, percentage loss of cell viability [5]: 54.9%
IC50 [6]: 0.6 nM

CNC(=O)Nc1cc(Oc2ccc(NC(=O)Nc3cc(C(C)(C)C)nn3-c3ccc(OC)cc3)c3cccnc23)ccn1 [Example 58, 1-(3-tert-butyl-1-(4-methoxyphenyl)-1H-pyrazol-5-yl)-3-(8-(2-(3-methylureido)pyridin-4-yloxy)quinolin-5-yl)urea]
IC50 (p38 MAPKγ (MAPK12)): 176 nM
IC50 [1]: 34.1 nM
EC50 [2]: 2.1 nM
IC50 [3]: 13.2 nM
IC50 [4]: 3.3 nM
MTT Assay (Viability) 4 h d-U937, percentage loss of cell viability [5]: −12.4%
MTT Assay (Viability) 24 h d-U937, percentage loss of cell viability [5]: −29.0%
IC50 [6]: 2.2 nM

COc1ccc(-n2nc(C(C)(C)C)cc2NC(=O)Nc2ccc(Oc3ccnc(NC(=O)NC4CC4)c3)c(Cl)c2Cl)cc1 [Example 65, 1-(4-(4-(3-(3-tert-butyl-1-(4-methoxyphenyl)-1H-pyrazol-5-yl)ureido)-2,3-dichlorophenoxy)pyridin-2-yl)-3-cyclopropylurea]
IC50 (p38 MAPKγ (MAPK12)): 122 nM
IC50 [1]: 37.7 nM
EC50 [2]: 2 nM
IC50 [3]: 17.5 nM
IC50 [4]: 3.8 nM
MTT Assay (Viability) 4 h d-U937, percentage loss of cell viability [5]: −4.7%
MTT Assay (Viability) 24 h d-U937, percentage loss of cell viability [5]: 20.2%
IC50 [6]: 2.7 nM

COc1ccc(-n2nc(C(C)(C)C)cc2NC(=O)Nc2ccc(Oc3ccnc(NC(=O)N(C)C)c3)c(Cl)c2Cl)cc1 [Example 64, 3-(4-(4-(3-(3-tert-butyl-1-(4-methoxyphenyl)-1H-pyrazol-5-yl)ureido)-2,3-dichlorophenoxy)pyridin-2-yl)-1,1-dimethylurea]
IC50 (p38 MAPKγ (MAPK12)): 58 nM
IC50 [1]: 13.3 nM
EC50 [2]: 0.3 nM
IC50 [3]: 1.5 nM
IC50 [4]: 15.1 nM
MTT Assay (Viability) 4 h d-U937, percentage loss of cell viability [5]: −37.2%
MTT Assay (Viability) 24 h d-U937, percentage loss of cell viability [5]: 37.2%
IC50 [6]: 0.4 nM

COc1ccc(-n2nc(C(C)(C)C)cc2NC(=O)Nc2ccc(Oc3ccnc(NC(=O)NCCN(C)C)c3)c(Cl)c2Cl)cc1 [Example 13, 1-(3-tert-Butyl-1-(4-methoxyphenyl)-1H-pyrazol-5-yl)-3-(2,3-dichloro-4-((2-(3-(2-(dimethylamino)ethyl)ureido)pyridin-4-yl)oxy)phenyl)urea]
IC50 (p38 MAPKγ (MAPK12)): 21.7 nM
IC50 [1]: 11.2 nM
EC50 [2]: 2.1 nM
IC50 [3]: 2.1 nM
IC50 [4]: 1.3 nM
MTT Assay (Viability) 4 h d-U937, percentage loss of cell viability [5]: −6.4%
MTT Assay (Viability) 24 h d-U937, percentage loss of cell viability [5]: 63.9%
IC50 [6]: 1.7 nM
